pIC50: −log10 of the molar value. A value given as a limit tells only on which side of the number the result lay.

17 compounds from patent publication US6974870B2, “Substituted 3-amino-thieno [2,3-b]pyridine-2-carboxylic acid amide compounds and processes for preparing and their uses” (Boehringer Ingelheim Phamaceuticals, Inc., priority 2002, dated 2005) can be followed below.

One data set has as its target T1, human IKKβ (Homo sapiens, UniProt O14920).
T1 construct: FLAG (N)
T1 sequence (O14920 1-756): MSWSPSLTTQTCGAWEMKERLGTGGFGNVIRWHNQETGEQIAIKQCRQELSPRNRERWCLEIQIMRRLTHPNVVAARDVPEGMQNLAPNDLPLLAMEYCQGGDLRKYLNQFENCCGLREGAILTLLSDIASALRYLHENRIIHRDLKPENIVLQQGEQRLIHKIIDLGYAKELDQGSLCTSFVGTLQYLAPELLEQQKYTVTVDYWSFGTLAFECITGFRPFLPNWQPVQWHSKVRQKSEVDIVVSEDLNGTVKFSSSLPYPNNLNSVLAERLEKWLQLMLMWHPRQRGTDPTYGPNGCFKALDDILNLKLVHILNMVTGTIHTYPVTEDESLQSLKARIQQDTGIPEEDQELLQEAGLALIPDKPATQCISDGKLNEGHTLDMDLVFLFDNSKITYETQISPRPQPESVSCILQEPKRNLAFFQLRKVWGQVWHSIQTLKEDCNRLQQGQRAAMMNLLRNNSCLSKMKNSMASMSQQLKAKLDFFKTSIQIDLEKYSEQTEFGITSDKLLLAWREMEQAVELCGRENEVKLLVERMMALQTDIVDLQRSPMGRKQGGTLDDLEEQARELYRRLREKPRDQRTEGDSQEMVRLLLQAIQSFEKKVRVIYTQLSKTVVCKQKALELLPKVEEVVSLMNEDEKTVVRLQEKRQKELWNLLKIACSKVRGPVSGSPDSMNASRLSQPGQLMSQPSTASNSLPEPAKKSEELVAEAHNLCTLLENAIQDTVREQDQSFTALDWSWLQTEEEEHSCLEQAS
Description: IKKβ kinase inhibition assay (phosphorylation of IκBα substrate, 33P-ATP). It counts as biochemical. The following applies: flag-tagged human IKKβ 0.9 μg/ml, GST-IκBα (1-54) 53 μg/ml, 250 nM ATP, 1 hour at 25° C. The method in brief:
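N-terminally Flag-tagged human IKKα (3.6 μg/ml) or IKKβ (0.9 μg/ml) phosphorylating GST-IκBα(1-54) (245 or 53 μg/ml respectively), 250 nM ATP plus [33P]ATP, pH 7.5 HEPES with Mg2+/Mn2+, 2% DMSO; 5 min compound preincubation, 1 h at 25 °C.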

The next data set concerns the target T2, human IKKα (Homo sapiens, UniProt O15111).
T2 construct: FLAG (N)
T2 sequence (O15111 1-745): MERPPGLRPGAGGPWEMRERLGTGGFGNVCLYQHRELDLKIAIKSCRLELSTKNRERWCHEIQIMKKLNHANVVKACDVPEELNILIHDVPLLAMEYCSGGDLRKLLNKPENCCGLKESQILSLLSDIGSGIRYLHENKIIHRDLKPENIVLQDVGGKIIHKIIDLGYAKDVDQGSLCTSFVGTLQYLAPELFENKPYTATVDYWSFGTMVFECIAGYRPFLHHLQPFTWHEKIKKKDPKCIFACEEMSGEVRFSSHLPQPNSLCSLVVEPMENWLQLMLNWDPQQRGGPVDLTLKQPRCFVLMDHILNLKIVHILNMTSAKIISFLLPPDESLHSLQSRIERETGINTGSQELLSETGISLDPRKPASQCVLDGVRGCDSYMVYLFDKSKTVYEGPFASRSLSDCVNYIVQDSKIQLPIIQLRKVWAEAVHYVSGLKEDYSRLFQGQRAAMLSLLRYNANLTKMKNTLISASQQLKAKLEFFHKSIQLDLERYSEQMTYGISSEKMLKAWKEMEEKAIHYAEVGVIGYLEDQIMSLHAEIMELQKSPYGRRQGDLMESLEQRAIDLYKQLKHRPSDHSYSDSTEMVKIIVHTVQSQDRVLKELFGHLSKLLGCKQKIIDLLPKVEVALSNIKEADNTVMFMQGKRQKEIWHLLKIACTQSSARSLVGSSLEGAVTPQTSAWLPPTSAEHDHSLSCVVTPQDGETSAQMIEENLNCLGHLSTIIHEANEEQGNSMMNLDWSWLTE
As to the kind of experiment: IKKα kinase inhibition assay (phosphorylation of IκBα substrate, 33P-ATP). The class given is biochemical. The note with it: flag-tagged human IKKα 3.6 μg/ml, GST-IκBα (1-54) 245 μg/ml, 250 nM ATP, 1 hour at 25° C. How it is done: The inhibition of IKKα and IKKβ by the compounds of the present invention was determined with the following assay that measures the phosphorylation of the IκBα substrate by the respective kinases. The enzymes used in the assay were N-terminally flag-tagged versions of the human IKKβ or IKKα and the substrate was a GST fusion protein with IκBα (amino acids 1-54).
The reaction mixtures (60 μl) contained 20 mM HEPES pH 7.5, 10 mM MgCl2, 2 mM MnCl2, 100 mM NaCl, 100 μM Na3VO4, 20 mM β-glycerophosphate, 1 mM DTT, 2% DMSO, 250 nM ATP, 0.4 nM [^33P]ATP (specific activity, 3000 Ci/mmol), IκBα substrate, IKK enzyme and test compound. The reaction mixtures contained either 3.6 μg/ml IKKα and 245 μg/ml IκBα or 0.9 μg/ml IKKβ and 53 μg/ml IκBα.
Reactions were initiated by adding a solution of IκBα substrate and ATP to polypropylene plates containing IKK enzyme that was pre-incubated for 5 minutes with test compound. Then the reaction mixtures were incubated for 1 hour at 25° C., placed on ice and quenched by the addition of 150 μl 10% trichloroacetic acid and 5% disodium pyrophosphate. After mixing, the entire contents of the quenched reaction mixtures were transferred to a pre-wetted Packard UniFilter filtration plate, aspirated and washed 6 times with 250 μl of ddH2O using the Packard Filtermate Harvester. Filtration plates were then air dried, supplemented with 40 μl of Microscint 20 scintillation fluid and the ^33P-labeled reaction products were quantified using the Packard TopCount scintillation counter.
Compounds were tested in three-fold serial dilutions and inhibitor concentrations to achieve 50% inhibition of enzyme activity (i.e., IC50) were derived from dose-reponse curves using SAS software (SAS Institute, Cary N.C.). A non-linear regression analysis based on the Hill equation was applied to the percent inhibition versus concentration data. In all cases, compound concentrations were verified by HPLC.

The compound `CCCc1cc(N2CCC(NCC(O)c3ccc(NS(C)(=O)=O)cc3)CC2)nc2sc(C(N)=O)c(N)c12` (stereo not drawn) [Example 12, 3-Amino-6-{4-[2-hydroxy-2-(4-methanesulfonylamino-phenyl)-ethylamino)-piperidin-1-yl]-4-propyl-thieno[2,3-b]pyridine-2-carboxylic acid amide] yielded a melting point of 199 to 200 °C.
Regarding `NC(=O)c1sc2nc(N3CCC(N)CC3)cc(C(=O)Nc3cccnc3)c2c1N` [3-Amino-6-(4-amino-piperidin-1-yl)-thieno[2,3-b]pyridine-2,4-dicarboxylic acid 2-amide 4-pyridin-3-ylamide], the pIC50 against human IKKβ is > 6.00; against human IKKα it was ≥ 5.00.
As for `CCCc1cc(N2CCC(NCC(O)c3ccc(-n4ccnc4)cc3)CC2)nc2sc(C(N)=O)c(N)c12` (stereo not drawn) [3-Amino-6-{4-[2-hydroxy-2-(4-imidazol-1-yl-phenyl)-ethylamino]-piperidin-1-yl}-4-propyl-thieno[2,3-b] pyridine-2-carboxylic acid amide], the pIC50 against human IKKβ was > 6.00; on human IKKα, ≥ 5.00.
Consider `CC(C)c1cc(N2CCC(N)CC2)nc2sc(C(N)=O)c(N)c12` [3-Amino-6-(4-amino-piperidin-1-yl)-4-isopropyl-thieno[2,3-b] pyridine-2-carboxylic acid amide], for which the pIC50 against human IKKβ is > 6.00; at human IKKα, ≥ 5.00.
The corresponding values for `CCCc1cc(N2CCC(NCC(O)c3ccc(-c4cccnc4)cc3)CC2)nc2sc(C(N)=O)c(N)c12` (stereo not drawn) [3-Amino-6-{4-[2-hydroxy-2-(4-pyridin-3-yl-phenyl)-ethylamino]-piperidin-1-yl}-4-propyl-thieno[2,3-b] pyridine-2-carboxylic acid amide] are > 6.00 and ≥ 5.00.
On to `NC(=O)c1sc2nc(N3CCC(N)CC3)cc(C(N)=O)c2c1N` [3-Amino-6-(4-amino-piperidin-1-yl)-thieno[2,3-b]pyridine-2,4-dicarboxylic acid diamide], for which the results for the pIC50 against human IKKβ and at human IKKα were > 6.00 and ≥ 5.00, respectively.
Turning to `NC(=O)c1sc2nc(N3CCC(N)CC3)cc(/C=C/c3ccncc3)c2c1N` [3-Amino-6-(4-amino-piperidin-1-yl)-4-((E)-2-pyridin-4-yl-vinyl)-thieno[2,3-b]pyridine-2-carboxylic acid amide], the results for the pIC50 on human IKKβ and on human IKKα were > 6.00 and ≥ 5.00, respectively.
The corresponding values for `NC(=O)c1sc2nc(N3CCC(N)CC3)cc(C(=O)Nc3ccccc3)c2c1N` [3-Amino-6-(4-amino-piperidin-1-yl)-thieno[2,3-b]pyridine-2,4-dicarboxylic acid 2-amide 4-phenylamide] are > 6.00 and ≥ 5.00.
The corresponding values for `CCCc1cc(N2CCC(NCC(O)c3ccc(-c4nccn4C)cc3)CC2)nc2sc(C(N)=O)c(N)c12` (stereo not drawn) [3-Amino-6-(4-{2-hydroxy-2-[4-(1-methyl-1H-imidazol-2-yl)-phenyl]-ethylamino}-piperidin-1-yl)-4-propyl-thieno[2,3-b] pyridine-2-carboxylic acid amide] are > 6.00 and ≥ 5.00.
Take `NC(=O)c1sc2nc(N3CCC(N)CC3)cc(C3CC3)c2c1N` [3-Amino-6-(4-amino-piperidin-1-yl)-4-cyclopropyl-thieno[2,3-b] pyridine-2-carboxylic acid amide]: the negative-log IC50 (pIC50) against human IKKβ is > 6.00; against human IKKα it was ≥ 5.00.
Take `CNC1CCN(c2cc(SC)c3c(N)c(C(N)=O)sc3n2)CC1` [3-Amino-6-(4-methylamino-piperidin-1-yl)-4-methylsulfanyl-thieno[2,3-b]pyridine-2-carboxylic acid amide]: the negative-log IC50 (pIC50) against human IKKβ was > 6.00; at human IKKα, ≥ 5.00.
In the case of `COC(=O)c1ccc(/C=C/c2cc(N3CCC(N)CC3)nc3sc(C(N)=O)c(N)c23)cc1` [4-{(E)-2-[3-Amino-6-(4-amino-piperidin-1-yl)-2-carbamoyl-thieno[2,3-b]pyridin-4-yl]-vinyl}-benzoic acid methyl ester], the results for the pIC50 at human IKKβ and at human IKKα were > 6.00 and ≥ 5.00, respectively.
As to `CCCc1cc(N2CCC(NCC(=O)O)CC2)nc2sc(C(N)=O)c(N)c12` [[1-(3-Amino-2-carbamoyl-4-propyl-thieno[2,3-b]pyridin-6-yl)-piperidin-4-ylamino]-acetic acid], the negative-log IC50 (pIC50) against human IKKβ was > 6.00; against human IKKα, ≥ 5.00.
With `CCCc1cc(N2CCC(NCC(=O)N3CCC(O)CC3)CC2)nc2sc(C(N)=O)c(N)c12` [3-Amino-6-{4-[2-(4-hydroxy-piperidin-1-yl)-2-oxo-ethylamino]-piperidin-1-yl}-4-propyl-thieno[2,3-b] pyridine-2-carboxylic acid amide], the pIC50 was > 6.00 against human IKKβ and ≥ 5.00 against human IKKα.
Regarding `NC(=O)c1sc2nc(N3CCC(NCC(O)c4ccc(-c5nccs5)cc4)CC3)cc(C(F)(F)F)c2c1N` (stereo not drawn) [3-Amino-6-{4-[2-hydroxy-2-(4-thiazol-2-yl-phenyl)-ethylamino]-piperidin-1-yl}-4-trifluoromethyl-thieno[2,3-b]pyridine-2-carboxylic acid amide], the negative logarithm of the IC50 (pIC50) was > 6.00 against human IKKβ and ≥ 5.00 against human IKKα.
For the compound `CNC(=O)c1cc(N2CCC(N)CC2)nc2sc(C(N)=O)c(N)c12` [3-Amino-6-(4-amino-piperidin-1-yl)-thieno[2,3-b]pyridine-2,4-dicarboxylic acid 2-amide 4-methylamide], the pIC50 is > 6.00 against human IKKβ and ≥ 5.00 against human IKKα.
The corresponding values for `CCCc1cc(N2CCC(NCc3nnn[nH]3)CC2)nc2sc(C(N)=O)c(N)c12` [3-Amino-4-propyl-6-{4-[(1H-tetrazol-5-ylmethyl)-amino]-piperidin-1-yl}-thieno[2,3-b] pyridine-2-carboxylic acid amide] are > 6.00 and ≥ 5.00.

One may read the melting point as the temperature, or range, at which the solid turns liquid. One may read the pIC50 as the IC50 on a negative log10 scale, so that one unit is a factor of ten.
